Patent US20240158446A1, “CYCLIC COMPOUND HAVING SELECTIVE INHIBITORY ACTION ON KRAS OVER HRAS AND NRAS” (CHUGAI SEIYAKU KABUSHIKI KAISHA, priority 2021, published 2024)

What was measured:
[1] = molecular target: GDP-bound NRAS wild-type protein (Homo sapiens, UniProt P01111); assay: Binding to NRAS by surface plasmon resonance (SPR), Single Cycle Kinetics; settings: SPR, GDP-bound NRAS wild-type protein vs GDP-bound KRAS wild-type protein
[2] = molecular target: GDP-bound HRAS wild-type protein (Homo sapiens, UniProt P01112); assay: Binding to HRAS by surface plasmon resonance (SPR), Single Cycle Kinetics; settings: SPR, GDP-bound HRAS wild-type protein vs GDP-bound KRAS wild-type protein
[3] = molecular target: GDP-bound KRAS wild-type protein (Homo sapiens, UniProt P01116); assay: Binding to KRAS by surface plasmon resonance (SPR), Single Cycle Kinetics; settings: SPR, Single Cycle Kinetics, GDP-bound KRAS wild-type protein; read-out: KRAS KD
GDP-bound KRAS wild-type protein, sequence (P01116 whole entry): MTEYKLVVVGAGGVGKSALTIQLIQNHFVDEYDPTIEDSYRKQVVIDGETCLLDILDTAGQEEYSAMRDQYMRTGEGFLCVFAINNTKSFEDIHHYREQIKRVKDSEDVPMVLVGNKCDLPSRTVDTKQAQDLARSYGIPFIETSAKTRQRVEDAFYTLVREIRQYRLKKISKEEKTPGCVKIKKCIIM

GDP-bound HRAS wild-type protein, sequence (P01112 whole entry): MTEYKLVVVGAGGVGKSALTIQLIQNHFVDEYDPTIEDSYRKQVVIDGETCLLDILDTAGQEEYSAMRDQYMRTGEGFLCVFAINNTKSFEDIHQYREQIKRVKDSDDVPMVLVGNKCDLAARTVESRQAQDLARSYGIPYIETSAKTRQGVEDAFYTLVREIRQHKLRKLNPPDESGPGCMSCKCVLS
GDP-bound NRAS wild-type protein, sequence (P01111 whole entry): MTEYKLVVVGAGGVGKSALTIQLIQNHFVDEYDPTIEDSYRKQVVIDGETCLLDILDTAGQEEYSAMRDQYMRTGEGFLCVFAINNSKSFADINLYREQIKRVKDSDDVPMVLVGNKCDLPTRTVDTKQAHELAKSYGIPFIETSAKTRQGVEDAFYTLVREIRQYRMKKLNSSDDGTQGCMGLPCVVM

SMILES | NRAS/KRAS (ratio of KD value for NRAS to KD value for KRAS) [1] | HRAS/KRAS (ratio of KD value for HRAS to KD value for KRAS) [2] | Kd [3] [pM]
CCC[C@H]1C(=O)N[C@@H](C2CCCC2)C(=O)N(C)CC(=O)N(C)[C@H]2C/C=C\CCN(C2=O)[C@@H](Cc2ccc(C(F)(F)F)cc2)C(=O)N(C)CC(=O)N[C@@H](CCc2ccc(C(F)(F)F)c(Cl)c2)C(=O)N2CC3(CC3)C[C@H]2C(=O)NC2(CC(C)(C)C2)C(=O)N(C)[C@@H](C2CCCC2)C(=O)N(C)[C@H](C(=O)N(C)C)CC(=O)N1C [PP2986] | AA (a compound having 20 or more is denoted as AA) | A (a compound having 10 or more and less than 20 is denoted as A) | 340
CCC[C@H]1C(=O)N[C@@H]([C@@H](C)CC)C(=O)N(C)CC(=O)N(C)[C@H]2C/C=C\CCN(C2=O)[C@@H](Cc2ccc(C(F)(F)F)cc2)C(=O)N(C)CC(=O)N[C@@H](CCc2ccc(C(F)(F)F)c(Cl)c2)C(=O)N2CC3(CC3)C[C@H]2C(=O)NC2(CC(C)(C)C2)C(=O)N(C)[C@@H](CC(C)C)C(=O)N(C)[C@H](C(=O)N(C)C)CC(=O)N1C [PP2987] | AA (a compound having 20 or more is denoted as AA) | A (a compound having 10 or more and less than 20 is denoted as A) | 660
CCC[C@H]1C(=O)N[C@@H](C2CCCC2)C(=O)N(C)CC(=O)N(C)[C@H]2C/C=C\CCN(C2=O)[C@@H](Cc2ccc(C)cc2)C(=O)N(C)CC(=O)N[C@@H](CCc2cc(F)c(C(F)(F)F)c(F)c2)C(=O)N2C[C@H](OCC)C[C@H]2C(=O)NC2(CC(C)(C)C2)C(=O)N(C)[C@@H](CC(C)(C)C)C(=O)N(C)[C@H](C(=O)N(C)C)CC(=O)N1C [PP2989] | AA (a compound having 20 or more is denoted as AA) | A (a compound having 10 or more and less than 20 is denoted as A) | 87
CCC[C@H]1C(=O)N[C@@H](C2CCCC2)C(=O)N(C)CC(=O)N(C)[C@H]2C/C=C\CCN(C2=O)[C@@H](Cc2ccc(C)cc2)C(=O)N(C)CC(=O)N[C@@H](CCc2ccc(C(F)(F)F)c(OC)c2)C(=O)N2C[C@H](OCC)C[C@H]2C(=O)NC2(CC(C)(C)C2)C(=O)N(C)[C@@H](C2CCCC2)C(=O)N(C)[C@H](C(=O)N(C)C)CC(=O)N1C [PP2992] | AA (a compound having 20 or more is denoted as AA) | A (a compound having 10 or more and less than 20 is denoted as A) | 190
CCC[C@H]1C(=O)N[C@@H]([C@@H](C)CC)C(=O)N(C)CC(=O)N(C)[C@H]2C/C=C\CCN(C2=O)[C@@H](Cc2ccc(C)cc2)C(=O)N(C)CC(=O)N[C@@H](CCc2cc(F)c(C(F)(F)F)c(F)c2)C(=O)N2C[C@H](OCC)C[C@H]2C(=O)NC2(CC(C)(C)C2)C(=O)N(C)[C@@H](CC(F)(F)F)C(=O)N(C)[C@H](C(=O)N(C)C)CC(=O)N1C [PP2993] | A (a compound having 10 or more and less than 20 is denoted as A) | A (a compound having 10 or more and less than 20 is denoted as A) | 430
CCC[C@H]1C(=O)N[C@@H](C2CCCCC2)C(=O)N(C)CC(=O)N(C)[C@H]2C/C=C\CCN(C2=O)[C@@H](Cc2ccc(C(F)(F)F)cc2)C(=O)N(C)CC(=O)N[C@@H](CCc2ccc(C(F)(F)F)c(Cl)c2)C(=O)N2C[C@H](OCC)C[C@H]2C(=O)NC2(CC(C)(C)C2)C(=O)N(C)[C@@H](C2CCCC2)C(=O)N(C)[C@H](C(=O)N(C)C)CC(=O)N1C [PP2996] | AA (a compound having 20 or more is denoted as AA) | A (a compound having 10 or more and less than 20 is denoted as A) | 360
CCC[C@H]1C(=O)N[C@@H]([C@@H](C)CC)C(=O)N(C)CC(=O)N(C)[C@H]2C/C=C\CCN(C2=O)[C@@H](Cc2ccc(C)cc2)C(=O)N(C)CC(=O)N[C@@H](CCc2cc(F)c(C(F)(F)F)c(F)c2)C(=O)N2CC3(CC3)C[C@H]2C(=O)NC2(CC(C)(C)C2)C(=O)N(C)[C@@H](CC(C)(C)C)C(=O)N(C)[C@H](C(=O)N(C)C)CC(=O)N1C [PP2997] | A (a compound having 10 or more and less than 20 is denoted as A) | B (a compound having 3 or more and less than 10 is denoted as B) | 120
CCC[C@H]1C(=O)N[C@@H](C2CCCC2)C(=O)N(C)CC(=O)N(C)[C@H]2C/C=C\CCN(C2=O)[C@@H](Cc2ccc(C)cc2)C(=O)N(C)CC(=O)N[C@@H](CCc2cc(F)c(C(F)(F)F)c(F)c2)C(=O)N2CC3(CC3)C[C@H]2C(=O)NC2(CC(C)(C)C2)C(=O)N(C)[C@@H](CC(C)(C)C)C(=O)N(C)[C@H](C(=O)N(C)C)CC(=O)N1C [PP2999] | AA (a compound having 20 or more is denoted as AA) | A (a compound having 10 or more and less than 20 is denoted as A) | 130
CCC[C@H]1C(=O)N[C@@H](C2CCOCC2)C(=O)N(C)CC(=O)N(C)[C@H]2C/C=C\CCN(C2=O)[C@@H](Cc2ccc(C(F)(F)F)cc2)C(=O)N(C)CC(=O)N[C@@H](CCc2ccc(C(F)(F)F)c(Cl)c2)C(=O)N2C[C@H](OCC)C[C@H]2C(=O)NC2(CC(C)(C)C2)C(=O)N(C)[C@@H](C2CCCC2)C(=O)N(C)[C@H](C(=O)N(C)C)CC(=O)N1C [PP3000] | AA (a compound having 20 or more is denoted as AA) | A (a compound having 10 or more and less than 20 is denoted as A) | 1300
CCC[C@H]1C(=O)N[C@@H]([C@@H](C)CC)C(=O)N(C)CC(=O)N(C)[C@H]2C/C=C\CCN(C2=O)[C@@H](Cc2ccc(C)cc2)C(=O)N(C)CC(=O)N[C@@H](CCc2cc(F)c(C(F)(F)F)c(F)c2)C(=O)N2CC3(CC3)C[C@H]2C(=O)NC2(CC(C)(C)C2)C(=O)N(C)[C@@H](CC(F)(F)F)C(=O)N(C)[C@H](C(=O)N(C)C)CC(=O)N1C [PP3003] | AA (a compound having 20 or more is denoted as AA) | A (a compound having 10 or more and less than 20 is denoted as A) | 720
CCC[C@H]1C(=O)N[C@@H]([C@@H](C)CC)C(=O)N(C)CC(=O)N(C)[C@H]2C/C=C\CCN(C2=O)[C@@H](Cc2ccc(C)cc2)C(=O)N(C)CC(=O)N[C@@H](CCc2ccc(C(F)(F)F)c(OC)c2)C(=O)N2C[C@H](OCC)C[C@H]2C(=O)NC2(CC(C)(C)C2)C(=O)N(C)[C@@H]([C@@H](C)CC)C(=O)N(C)[C@H](C(=O)N(C)C)CC(=O)N1C [PP3006] | A (a compound having 10 or more and less than 20 is denoted as A) | A (a compound having 10 or more and less than 20 is denoted as A) | 410
CCC[C@H]1C(=O)N[C@@H]([C@@H](C)CC)C(=O)N(C)CC(=O)N(C)[C@H]2C/C=C\CCN(C2=O)[C@@H](Cc2ccc(C)cc2)C(=O)N(C)CC(=O)N[C@@H](CCc2ccc(C(F)(F)F)c(OC)c2)C(=O)N2CC3(CC3)C[C@H]2C(=O)NC2(CC(C)(C)C2)C(=O)N(C)[C@@H](CC(F)(F)F)C(=O)N(C)[C@H](C(=O)N(C)C)CC(=O)N1C [PP3012] | A (a compound having 10 or more and less than 20 is denoted as A) | A (a compound having 10 or more and less than 20 is denoted as A) | 1900
CCC[C@H]1C(=O)N[C@@H](C2CCCCC2)C(=O)N(C)CC(=O)N(C)[C@H]2C/C=C\CCN(C2=O)[C@@H](Cc2ccc(C(F)(F)F)cc2)C(=O)N(C)CC(=O)N[C@@H](CCc2ccc(C(F)(F)F)c(Cl)c2)C(=O)N2C[C@H](OCC)C[C@H]2C(=O)NC2(CC(C)(C)C2)C(=O)N(C)[C@@H](CC(C)(C)C)C(=O)N(C)[C@H](C(=O)N(C)C)CC(=O)N1C [PP3014] | AA (a compound having 20 or more is denoted as AA) | A (a compound having 10 or more and less than 20 is denoted as A) | 370
CCC[C@H]1C(=O)N[C@@H](C2CCCCC2)C(=O)N(C)CC(=O)N(C)[C@H]2C/C=C\CCN(C2=O)[C@@H](Cc2ccc(C(F)(F)F)cc2)C(=O)N(C)CC(=O)N[C@@H](CCc2ccc(C(F)(F)F)c(Cl)c2)C(=O)N2C[C@H](OCC)C[C@H]2C(=O)NC2(CC(C)(C)C2)C(=O)N(C)[C@@H]([C@@H](C)CC)C(=O)N(C)[C@H](C(=O)N(C)C)CC(=O)N1C [PP3015] | AA (a compound having 20 or more is denoted as AA) | A (a compound having 10 or more and less than 20 is denoted as A) | 2200
CCC[C@H]1C(=O)N[C@@H](C2CCCCC2)C(=O)N(C)CC(=O)N(C)[C@H]2C/C=C\CCN(C2=O)[C@@H](Cc2ccc(C(F)(F)F)cc2)C(=O)N(C)CC(=O)N[C@@H](CCc2ccc(C(F)(F)F)c(Cl)c2)C(=O)N2C[C@H](OCC)C[C@H]2C(=O)NC2(CC(C)(C)C2)C(=O)N(C)[C@@H](CC(C)C)C(=O)N(C)[C@H](C(=O)N(C)C)CC(=O)N1C [PP3017] | AA (a compound having 20 or more is denoted as AA) | A (a compound having 10 or more and less than 20 is denoted as A) | 1500
CCC[C@H]1C(=O)N[C@@H](C2CCOCC2)C(=O)N(C)CC(=O)N(C)[C@H]2C/C=C\CCN(C2=O)[C@@H](Cc2ccc(C(F)(F)F)cc2)C(=O)N(C)CC(=O)N[C@@H](CCc2ccc(C(F)(F)F)c(Cl)c2)C(=O)N2C[C@H](OCC)C[C@H]2C(=O)NC2(CC(C)(C)C2)C(=O)N(C)[C@@H](CC(C)(C)C)C(=O)N(C)[C@H](C(=O)N(C)C)CC(=O)N1C [PP3022] | AA (a compound having 20 or more is denoted as AA) | A (a compound having 10 or more and less than 20 is denoted as A) | 590
